Test results taken from PubChem BioAssay AID330 (DTP/NCI, 2004).
“And” between values parts separate entries of the source, which are not always exact repeats. Equal values may be shown once. Toxic doses and inconclusive results are not listed.

System: P388 leukemia ip, CD2F1 mice, survival T/C
Test: NCI In Vivo Anticancer Drug Screen. Data for tumor model P388 Leukemia (intraperitoneal) in CD2F1 (CDF1) mice
Settings: endpoint: median survival time, higher = longer survival
Summary of the method: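 Mice carrying the transplanted tumor received test compound or vehicle. Survival was recorded in each group, and the value is the treated-group measurement divided by that of the vehicle-treated control group.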

[1] = dose: 100.0 mg/kg/injection, schedule: Q04DX003 (ip), vehicle: Klucel (hydroxypropylcellulose) (HPC)
[2] = dose: 200.0 mg/kg/injection, schedule: Q04DX003 (ip), vehicle: Klucel (hydroxypropylcellulose) (HPC)
[3] = dose: 400.0 mg/kg/injection, schedule: Q04DX003 (ip), vehicle: Klucel (hydroxypropylcellulose) (HPC)
[4] = dose: 50.0 mg/kg/injection, schedule: Q01DX005 (ip), vehicle: saline with Tween-80
[5] = dose: 100.0 mg/kg/injection, schedule: Q01DX005 (ip), vehicle: saline with Tween-80
[6] = dose: 200.0 mg/kg/injection, schedule: Q01DX005 (ip), vehicle: saline with Tween-80
[7] = dose: 50.0 mg/kg/injection, schedule: Q01DX009 (ip), vehicle: Klucel (hydroxypropylcellulose) (HPC)
[8] = dose: 100.0 mg/kg/injection, schedule: Q01DX009 (ip), vehicle: Klucel (hydroxypropylcellulose) (HPC)

In the case of `CS/C(=N\N=C(/C)c1ccccn1)SS/C(=N/N=C(\C)c1ccccn1)SC`, the T/C (dose: 12.5 mg/kg/injection, schedule: Q01DX005 (ip), vehicle: saline + Tween-80 + alcohol) is reported as 98 % of control, the T/C (dose: 25.0 mg/kg/injection, schedule: Q01DX005 (ip), vehicle: saline + Tween-80 + alcohol) is reported as 97 % of control and the T/C (dose: 50.0 mg/kg/injection, schedule: Q01DX005 (ip), vehicle: saline + Tween-80 + alcohol) is reported as 101 % of control and 103 % of control. For the same molecule, the T/C (dose: 100.0 mg/kg/injection, schedule: Q01DX005 (ip), vehicle: saline + Tween-80 + alcohol) was 111 % of control.
In the case of `Cc1cc(N2C(=O)CCSC2=S)ccc1Br`, the T/C (dose: 50.0 mg/kg/injection, schedule: Q01DX009 (ip), vehicle: suspension in saline) is reported as 87 % of control, the T/C (dose: 100.0 mg/kg/injection, schedule: Q01DX009 (ip), vehicle: suspension in saline) is reported as 104 % of control and the T/C (dose: 200.0 mg/kg/injection, schedule: Q01DX009 (ip), vehicle: suspension in saline) is reported as 116 % of control.
In the case of `CC(C)CCCCCCCCCCCCC(O)CC(=O)O` (centres undefined), the T/C (dose: 8.75 mg/kg/injection, schedule: Q01DX005 (ip), vehicle: Klucel + Tween-80) is reported as 92 % of control, the T/C (dose: 17.5 mg/kg/injection, schedule: Q01DX005 (ip), vehicle: Klucel + Tween-80) is reported as 86 % of control and the T/C (dose: 35.0 mg/kg/injection, schedule: Q01DX005 (ip), vehicle: Klucel + Tween-80) is reported as 95 % of control.
`O=C1OC(C2OC(=O)C(=O)C2C(=O)c2ccccc2Cl)C(C(=O)c2ccccc2Cl)C1=O` (centres undefined) was tested, and the T/C (dose: 15.0 mg/kg/injection, schedule: Q01DX005 (ip), vehicle: saline + Tween-80 + alcohol) was 99 % of control and the T/C (dose: 30.0 mg/kg/injection, schedule: Q01DX005 (ip), vehicle: saline + Tween-80 + alcohol) was 91 % of control.
In the case of `COC(=O)C(C)CN1CCCC1` (centres undefined), the T/C (dose: 12.5 mg/kg/injection, schedule: Q04DX003 (ip), vehicle: saline) is reported as 100 % of control, the T/C (dose: 25.0 mg/kg/injection, schedule: Q04DX003 (ip), vehicle: saline) is reported as 100 % of control and the T/C (dose: 50.0 mg/kg/injection, schedule: Q04DX003 (ip), vehicle: saline) is reported as 100 % of control.
For `O=c1oc(-c2ccccc2)nc2cc(Cl)ccc12`, the T/C [1] was 100 % of control, the T/C [2] was 90 % of control and the T/C [3] was 107 % of control.
For `COc1ccccc1OCC(Cn1c(=O)nc(-c2ccccc2)c2cc(Cl)ccc21)OC(N)=O` (centres undefined), the T/C [4] was 104 % of control, the T/C [5] was 100 % of control and the T/C [6] was 95 % of control.
With `COC1=C(OC)C(=O)C(CO)=CC1=O` the T/C (dose: 7.5 mg/kg/injection, schedule: Q01DX005 (ip), vehicle: saline) was 104 % of control and the T/C (dose: 15.0 mg/kg/injection, schedule: Q01DX005 (ip), vehicle: saline) was 87 % of control.
With `CCOC(=O)C(N=Nc1ccc(Br)cc1C)C(C)=O` (centres undefined) the T/C (dose: 25.0 mg/kg/injection, schedule: Q01DX005 (ip), vehicle: saline with Tween-80) was 98 % of control, the T/C [4] was 99 % of control and the T/C [5] was 98 % of control. The T/C [6] was 89 % of control.
`COC1=C(OC)C(=O)C(SCCCCCCC2CCCCC2)=C(Cl)C1=O` was tested, and the T/C (dose: 0.2 mg/kg/injection, schedule: Q01DX009 (ip), vehicle: saline) was 95 % of control, the T/C (dose: 0.4 mg/kg/injection, schedule: Q01DX009 (ip), vehicle: saline) was 101 % of control and the T/C (dose: 0.8 mg/kg/injection, schedule: Q01DX009 (ip), vehicle: saline) was 101 % of control. For the same molecule, the T/C (dose: 1.6 mg/kg/injection, schedule: Q01DX009 (ip), vehicle: saline) was 102 % of control, the T/C (dose: 3.13 mg/kg/injection, schedule: Q01DX009 (ip), vehicle: saline) was 105 % of control and the T/C (dose: 6.25 mg/kg/injection, schedule: Q01DX009 (ip), vehicle: saline) was 106 % of control.
With `C#Cc1cccc(N=Cc2cc(Cl)cc(Cl)c2O)c1` the T/C [4] was 102 % of control, the T/C [5] was 102 % of control and the T/C [6] was 108 % of control.
In the case of `CCCSc1nc2ccc(N=Cc3ccccc3O)cc2s1`, the T/C [7] is reported as 97 % of control, the T/C [8] is reported as 90 % of control and the T/C (dose: 200.0 mg/kg/injection, schedule: Q01DX009 (ip), vehicle: Klucel (hydroxypropylcellulose) (HPC)) is reported as 90 % of control.
`CCOC(=O)CN1C(=S)N(c2ccc(C)cc2)C(=Nc2ccc(C)cc2)C1=Nc1ccc(C)cc1` was tested, and the T/C (dose: 50.0 mg/kg/injection, schedule: Q01DX005 (ip), vehicle: Klucel + Tween-80) was 96 % of control, the T/C (dose: 100.0 mg/kg/injection, schedule: Q01DX005 (ip), vehicle: Klucel + Tween-80) was 91 % of control and the T/C (dose: 200.0 mg/kg/injection, schedule: Q01DX005 (ip), vehicle: Klucel + Tween-80) was 90 % of control.
For `C=CC1=C(C)c2cc3[n-]c(c(CC(=O)O)c4nc(cc5[n-]c(cc1n2)c(C)c5CC)C(C)=C4C(=O)O)C(CCC(=O)O)C3C.[Pt+2]` (centres undefined), the T/C (dose: 25.0 mg/kg/injection, schedule: Q04DX002 (ip), vehicle: saline) was 96 % of control, the T/C (dose: 50.0 mg/kg/injection, schedule: Q04DX002 (ip), vehicle: saline) was 99 % of control and the T/C (dose: 100.0 mg/kg/injection, schedule: Q04DX002 (ip), vehicle: saline) was 97 % of control. The T/C (dose: 200.0 mg/kg/injection, schedule: Q04DX002 (ip), vehicle: saline) was 88 % of control and the T/C (dose: 400.0 mg/kg/injection, schedule: Q04DX002 (ip), vehicle: saline) was 90 % of control.
`CN1CC(=O)NC2C=CN(Cc3c(Cl)cccc3Cl)C=C2C1=O` (centres undefined) was tested, and the T/C (dose: 60.0 mg/kg/injection, schedule: Q01DX005 (ip), vehicle: saline with Tween-80) was 89 % of control and 90 % of control, the T/C (dose: 120.0 mg/kg/injection, schedule: Q01DX005 (ip), vehicle: saline with Tween-80) was 88 % of control and the T/C (dose: 240.0 mg/kg/injection, schedule: Q01DX005 (ip), vehicle: saline with Tween-80) was 87 % of control and 90 % of control.
`CCCCC(CC)CSCN(CC)CC` (centres undefined) was tested, and the T/C (dose: 50.0 mg/kg/injection, schedule: Q01DX009 (ip), vehicle: saline) was 100 % of control, the T/C (dose: 100.0 mg/kg/injection, schedule: Q01DX009 (ip), vehicle: saline) was 102 % of control and the T/C (dose: 200.0 mg/kg/injection, schedule: Q01DX009 (ip), vehicle: saline) was 112 % of control.
With `O=S1(=O)OCc2ccccc21` the T/C (dose: 12.5 mg/kg/injection, schedule: Q01DX009 (ip), vehicle: Klucel (hydroxypropylcellulose) (HPC)) was 98 % of control, the T/C (dose: 25.0 mg/kg/injection, schedule: Q01DX009 (ip), vehicle: Klucel (hydroxypropylcellulose) (HPC)) was 100 % of control and the T/C [7] was 107 % of control. The T/C [8] was 117 % of control.
In the case of `COC(=O)/C=C/c1oc(=O)c(CO)c(OC)c1CO`, the T/C (dose: 20.0 mg/kg/injection, schedule: Q01DX009 (ip), vehicle: Klucel (hydroxypropylcellulose) (HPC)) is reported as 119 % of control, the T/C (dose: 40.0 mg/kg/injection, schedule: Q01DX009 (ip), vehicle: Klucel (hydroxypropylcellulose) (HPC)) is reported as 119 % of control and the T/C (dose: 80.0 mg/kg/injection, schedule: Q01DX009 (ip), vehicle: Klucel (hydroxypropylcellulose) (HPC)) is reported as 111 % of control.
In the case of `N[C@H]1CCC[C@@H](O)C1O` (some centres undefined), the T/C (dose: 60.0 mg/kg/injection, schedule: Q01DX005 (ip), vehicle: saline) is reported as 103 % of control, the T/C (dose: 120.0 mg/kg/injection, schedule: Q01DX005 (ip), vehicle: saline) is reported as 100 % of control and the T/C (dose: 240.0 mg/kg/injection, schedule: Q01DX005 (ip), vehicle: saline) is reported as 109 % of control.
`Cc1cccc2c1CC(C(C)C)C2` (centres undefined) was tested, and the T/C (dose: 25.0 mg/kg/injection, schedule: Q01DX009 (ip), vehicle: saline with Tween-80) was 111 % of control and 89 % of control, the T/C (dose: 50.0 mg/kg/injection, schedule: Q01DX009 (ip), vehicle: saline with Tween-80) was 108 % of control and 96 % of control and the T/C (dose: 100.0 mg/kg/injection, schedule: Q01DX009 (ip), vehicle: saline with Tween-80) was 104 % of control and 107 % of control. For the same molecule, the T/C (dose: 200.0 mg/kg/injection, schedule: Q01DX009 (ip), vehicle: saline with Tween-80) was 90 % of control.
`CCC[As](CCC)SC1CC(OC(=O)c2ccccc2)C(OC(=O)c2ccccc2)C(COC(=O)c2ccccc2)O1` (centres undefined) was tested, and the T/C (dose: 50.0 mg/kg/injection, schedule: Q01DX009 (ip), vehicle: saline + alcohol) was 100 % of control, the T/C (dose: 100.0 mg/kg/injection, schedule: Q01DX009 (ip), vehicle: saline + alcohol) was 102 % of control and the T/C (dose: 200.0 mg/kg/injection, schedule: Q01DX009 (ip), vehicle: saline + alcohol) was 102 % of control.
In the case of `C=C1C(O)C2(O)OCC34C(CC5C(C)=CC(=O)C(O)C5(C)C23)OC(=O)C(OC(=O)C/C=C(\C)CCCCC)C14` (centres undefined), the T/C (dose: 2.0 mg/kg/injection, schedule: Q01DX005 (ip), vehicle: saline + alcohol) is reported as 161 % of control and the T/C (dose: 4.0 mg/kg/injection, schedule: Q01DX005 (ip), vehicle: saline + alcohol) is reported as 168 % of control and 169 % of control.
`COC(=O)c1cc(=O)n(-c2ccccc2C(F)(F)F)c(SC)n1` was tested, and the T/C (dose: 50.0 mg/kg/injection, schedule: Q04DX003 (ip), vehicle: Klucel (hydroxypropylcellulose) (HPC)) was 95 % of control and 97 % of control, the T/C [1] was 99 % of control and 100 % of control and the T/C [2] was 104 % of control and 111 % of control. For the same molecule, the T/C [3] was 110 % of control.
For `COc1ccc(C(C)c2cc3c(cc2OC(C)=O)OCO3)cc1` (centres undefined), the T/C [4] was 100 % of control, the T/C [5] was 87 % of control and the T/C [6] was 93 % of control.
